Measurements published in patent US9290688B2, “Alkaline microbial enhanced oil recovery” (GEO FOSSIL FUELS, LLC, priority 2011, dated 2016).

Tested on: Rhodococcus rhodochrous ATCC #53968
Assay: Digestion of Red River crude oil with and without beta-oxidation inhibitors; GC of methyl esters of extracted organic acids
Type: cell-based
Settings: for Total GC (all peaks integrated by the GC integrator): 0.31 g oil sample; for conv. To umoles FA: approximately 1.0 micromoles per 100 area units; for Cal. AN (calculated acid number): estimated from GC areas
Protocol: An oil degrading microorganism was used to evaluate the use of chemical inhibitors to slow the utilization of hydrocarbons in petroleum. In a non-limiting example, three different chemical compounds that have been reported to inhibit beta-oxidation were tested in oil and culture medium on a petroleum sample with a strain of Rhodococcus rhodochrous ATCC #53968 in m9 minimal medium. To test the ability of each chemical inhibitor to slow the consumption of fatty acids a culture of bacteria was grown on a crude oil sample for a period of three days with crude petroleum oil as the only carbon source. Four separate flasks were set up, each with an oil to aqueous media ratio of 1 to 5 (10 ml of crude oil to 50 ml of culture medium). Each of the three chemical inhibitors was added to a separate flask and a fourth flask was allowed to digest without the addition of a chemical inhibitor as a control. The flasks were shaken at a room temperature of about 25° C. under aerobic conditions. The progress of the microbial digestion was monitored by the optical density at 600 nm and by visual inspection of the brown oil color in the aqueous phase. Three days after the addition of inhibitors, or a total of six days of incubation with oil, a small sample of oil (0.31 g) was removed. A second sample of the same size was remover after another 6 days. The organic acids were extracted from each oil sample with 1% NaOH in 70% ethanol. The samples were shaken vigorously for one minute. The aqueous extract material was then extracted with hexane to remove any trace of oil. The samples of extracted organic acids were then dried under vacuum and converted to methyl esters with BF3 in methanol.
The mixtures of methyl esters were analyzed by GC (gas chromatography) using a HP (Hewlett Packard) 5890 GC with an Agilent Technologies capillary column, HP-5 (crosslinked 5% PH) ME Siloxane 0.25 micrometer coating with a length of 30 meter and a column ID (internal diameter) of 0.32 mm. Helium was used as a carrier gas. Detection was by a FID detector and integration of peak areas was done with a HP 3396 integrator. The temperature program held an initial temperature of 40° C. for 1.0 minutes then increased at 15 degrees per minute to 280° C., and finally held at a temperature of 280° C. for 5 minutes. To quantify the amount of organic acids extracted by this procedure, a stock solution of 2-bromooctanoate and 2-bromohexadecanoate were added to a sample of undigested Red River crude petroleum oil and then extracted by the same procedure as the bio-digested oil samples. The average area for theses two organic acids was used to estimate the amount of organic acids in micromoles per area unit determined by the GC integrator. The number was calculated to be approximately 1.0 micromoles per 100 area units. The area units for each of the GC peaks are list in Table 2. This number was used to estimate the micromoles organic acids extracted from the oil. This estimate was used to calculate the number of mg of KOH that equaled the number of micromoles of organic acid estimated. This number is listed on the last row in Table 2 as the calculated AN (acid number) for each digestion experiment. These estimated numbers are only based on organic acids that are hydrophobic enough to stay in the oil phase and not move into the aqueous phase. Organic acids measured include the carboxylic acids made by the bacteria and that have been secreted out of the cell and have migrated back to the oil phase. They are also hydrocarbons that are small enough to be extracted into the ethanol aqueous extraction solvent. This number is likely to be less than the total acid number (TAN), a measure often used to evaluate crude petroleum for amenability to alkaline waterflooding.
The earlier eluting peaks are believed to represent methyl ester of lighter hydrocarbon carboxylic acids and the later eluting peaks are believed to represent methyl ester of the heavier organic acids. […]

[1] = 12 days, listed as acrylic acid

C=CC(=O)O [AA, acrylic acid]
GC peak area, retention time 4.5 (6 days): 0.242 area units | GC peak area, retention time 5.6 (6 days): 0.948 area units | GC peak area, retention time 6.6 (6 days): 2.856 area units | GC peak area, retention time 7.6 (6 days): 2.724 area units | GC peak area, retention time 8.2 (6 days): 0.703 area units | GC peak area, retention time 8.5 (6 days): 1.907 area units | GC peak area, retention time 9.4 (6 days): 1.575 area units | GC peak area, retention time 10.2 (6 days): 1.591 area units | GC peak area, retention time 11 (6 days): 2.134 area units | GC peak area, retention time 11.5 (6 days): 2.596 area units | GC peak area, retention time 11.7 (6 days): 2.416 area units | GC peak area, retention time 12.3 (6 days): 1.097 area units | GC peak area, retention time 12.5 (6 days): 4.385 area units | GC peak area, retention time 13 (6 days): 0.521 area units | GC peak area, retention time 13.1 (6 days): 1.769 area units | GC peak area, retention time 13.2 (6 days): 3.486 area units | GC peak area, retention time 13.4 (6 days): 1.122 area units | GC peak area, retention time 13.6 (6 days): 0.783 area units | GC peak area, retention time 13.8 (6 days): 2.448 area units | GC peak area, retention time 14 (6 days): 0.447 area units | GC peak area, retention time 14.2 (6 days): 0.78 area units | SubTotal peak area, later peaks eluting after 13 minutes (6 days): 11.356 area units | SubTotal peak area, peaks eluting before 13 minutes (6 days): 25.173 area units | Total GC area For 1 ml (6 days): 175 | Total of all selected peaks (6 days): 36.529 area units | Total GC (all peaks integrated by the GC integrator) (6 days): 54.17 area units | conv. To umoles FA (6 days): 1.75 µmol | Cal. AN (calculated acid number) (6 days): 0.098 mg of KOH | GC peak area, retention time 4.2 (12 days): 0.58 area units | GC peak area, retention time 4.5 (12 days): 1.051 area units | GC peak area, retention time 4.6 (12 days): 1.519 area units | GC peak area, retention time 5.6 (12 days): 2.754 area units | GC peak area, retention time 6.6 (12 days): 7.835 area units | GC peak area, retention time 7.6 (12 days): 5.761 area units | GC peak area, retention time 8.2 (12 days): 0.558 area units | GC peak area, retention time 8.5 (12 days): 3.369 area units | GC peak area, retention time 9.4 (12 days): 0.747 area units | GC peak area, retention time 10.2 (12 days): 0.588 area units | GC peak area, retention time 11 (12 days): 1.736 area units | GC peak area, retention time 11.5 (12 days): 2.968 area units | GC peak area, retention time 11.7 (12 days): 3.716 area units | GC peak area, retention time 12.3 (12 days): 2.722 area units | GC peak area, retention time 12.5 (12 days): 6.208 area units | GC peak area, retention time 12.7 (12 days): 1.6421 area units | GC peak area, retention time 13 (12 days): 1.99 area units | GC peak area, retention time 13.1 (12 days): 2.209 area units | GC peak area, retention time 13.2 (12 days): 4.801 area units | GC peak area, retention time 13.4 (12 days): 3.72 area units | GC peak area, retention time 13.6 (12 days): 2.005 area units | GC peak area, retention time 13.8 (12 days): 2.512 area units | GC peak area, retention time 14 (12 days): 2.548 area units | GC peak area, retention time 14.2 (12 days): 2.779 area units | SubTotal peak area, later peaks eluting after 13 minutes (12 days): 22.564 area units | SubTotal peak area, peaks eluting before 13 minutes (12 days): 43.754 area units | Total GC area For 1 ml (12 days): 291 | Total of all selected peaks (12 days): 66.318 area units | Total GC (all peaks integrated by the GC integrator) (12 days): 90.15 area units | conv. To umoles FA (12 days): 2.91 µmol | Cal. AN (calculated acid number) (12 days): 0.16 mg of KOH | SubTotal peak area, later peaks eluting after 13 minutes [1]: 22.5 area units | SubTotal peak area, peaks eluting before 13 minutes [1]: 43.7 area units

CCCCCCC(Br)C(=O)O (centres unmarked) [Br C8, 2-bromooctanoic acid]
GC peak area, retention time 4.5 (6 days): 0.351 area units | GC peak area, retention time 5.6 (6 days): 0.835 area units | GC peak area, retention time 6.6 (6 days): 2.783 area units | GC peak area, retention time 7.6 (6 days): 2.476 area units | GC peak area, retention time 8.2 (6 days): 0.682 area units | GC peak area, retention time 8.5 (6 days): 1.443 area units | GC peak area, retention time 9.4 (6 days): 1.146 area units | GC peak area, retention time 10.2 (6 days): 1.618 area units | GC peak area, retention time 11 (6 days): 2.608 area units | GC peak area, retention time 11.5 (6 days): 1.69 area units | GC peak area, retention time 11.7 (6 days): 3.004 area units | GC peak area, retention time 12.3 (6 days): 1.604 area units | GC peak area, retention time 12.5 (6 days): 4.566 area units | GC peak area, retention time 12.7 (6 days): 1.145 area units | GC peak area, retention time 13 (6 days): 1.421 area units | GC peak area, retention time 13.1 (6 days): 2.61 area units | GC peak area, retention time 13.2 (6 days): 3.047 area units | GC peak area, retention time 13.4 (6 days): 2.196 area units | GC peak area, retention time 13.6 (6 days): 1.314 area units | GC peak area, retention time 13.8 (6 days): 3.341 area units | GC peak area, retention time 14 (6 days): 1.661 area units | GC peak area, retention time 14.2 (6 days): 0.963 area units | SubTotal peak area, later peaks eluting after 13 minutes (6 days): 16.553 area units | SubTotal peak area, peaks eluting before 13 minutes (6 days): 25.951 area units | Total GC area For 1 ml (6 days): 250 | Total of all selected peaks (6 days): 42.504 area units | Total GC (all peaks integrated by the GC integrator) (6 days): 77.5 area units | conv. To umoles FA (6 days): 2.5 µmol | Cal. AN (calculated acid number) (6 days): 0.14 mg of KOH | GC peak area, retention time 4.2 (12 days): 0.47 area units | GC peak area, retention time 4.5 (12 days): 0.943 area units | GC peak area, retention time 5.6 (12 days): 1.656 area units | GC peak area, retention time 6.6 (12 days): 4.625 area units | GC peak area, retention time 7.6 (12 days): 3.349 area units | GC peak area, retention time 8.2 (12 days): 0.497 area units | GC peak area, retention time 8.5 (12 days): 1.763 area units | GC peak area, retention time 9.4 (12 days): 0.681 area units | GC peak area, retention time 10.2 (12 days): 0.387 area units | GC peak area, retention time 11 (12 days): 0.985 area units | GC peak area, retention time 11.5 (12 days): 3.548 area units | GC peak area, retention time 11.7 (12 days): 2.41 area units | GC peak area, retention time 12.3 (12 days): 2.973 area units | GC peak area, retention time 12.5 (12 days): 5.664 area units | GC peak area, retention time 13 (12 days): 2.785 area units | GC peak area, retention time 13.1 (12 days): 4.367 area units | GC peak area, retention time 13.2 (12 days): 7.327 area units | GC peak area, retention time 13.4 (12 days): 8.161 area units | GC peak area, retention time 13.6 (12 days): 4.176 area units | GC peak area, retention time 13.8 (12 days): 4.901 area units | GC peak area, retention time 14 (12 days): 4.709 area units | GC peak area, retention time 14.2 (12 days): 1.74 area units | SubTotal peak area, later peaks eluting after 13 minutes (12 days): 38.166 area units | SubTotal peak area, peaks eluting before 13 minutes (12 days): 31.453 area units | Total GC area For 1 ml (12 days): 373 | Total of all selected peaks (12 days): 69.619 area units | Total GC (all peaks integrated by the GC integrator) (12 days): 115.7 area units | conv. To umoles FA (12 days): 3.73 µmol | Cal. AN (calculated acid number) (12 days): 0.21 mg of KOH
